Experimental findings from patent US20060123501A1, “Method for treating inflammatory disorders” (priority 2004, published 2006) are described below.

For assay [1], the system named is peritoneal- and splenic-derived macrophages. The experiment in a line: Percentage and apoptotic status (Annexin V) of peritoneal and splenic macrophages after i.p. LPS. The assay is classed as in vivo, mouse. The procedure:
To determine the apoptotic sensitivity of cIAP2^−/− macrophages within an LPS-induced pro-inflammatory environment, the peritoneal macrophage cell numbers before and during an endotoxin-elicited response were assessed by trypan blue exclusion, Diff Quik™ staining kit and flow cytometry (using the macrophage marker PE conjugated α-F4/80 antibody). […] However, total lymphocyte cell count numbers (B and T cells) were comparatively unaffected in both animal types (FIG. 5D). In addition, at 5 hours post LPS injection both the peritoneal and splenic macrophages from cIAP2^−/− mice stained ˜100% positive for Annexin V (Table 5). Therefore, peritoneal and splenic macrophages from cIAP2^−/− mice undergoing LPS-induced endotoxic shock were highly sensitive to apoptotic stimuli compared to control littermates, in vivo. Liver-derived macrophages are key mediators of LPS-induced endotoxic shock (7, 12). Therefore, to further investigate the survival status of macrophages within LPS treated cIAP2^−/− mice we examined cell count levels of liver-derived macrophages within liver sections. Macrophage cell count numbers within both cIAP2^−/− and control mice were similar at 2 hours post-IP LPS treatment (FIG. 6A), 235+/−35 and 271+/−29, respectively (n=5, average of 3 sections (average of 5 fields per section) per mouse, P<0.01). However, at the 6 hour time point (FIG. 6B), there was a precipitous drop of liver-derived macrophages of the cIAP2^−/− mice, 21+/−12 versus that of the littermates, 148+/−19 (n=5, average of 3 sections (average of 5 fields per section) per mouse, P<0.01). Therefore, like peritoneal and splenic macrophages, the liver-derived macrophages from cIAP2^−/− are highly sensitive to LPS in vivo.
Adult 4-6 week old mice (n=6) were injected i.p. with LPS (35 mg LPS/kg) at time 0 and 5 hours the mice were euthanized and the cells of the peritoneum were collected and stained to determine macrophage, T and B cell percentages. The macrophages were also stained with FITC labeled Annexin V (Immunotech, Marseille, France) to determine apoptotic status.
T and B cells were isolated from mouse lymphoid tissue (spleen) by first mincing and then pressing the tissue through a 10 μm metal mesh and were then counted by using trypan blue exclusion method. Macrophages were harvested from mice using an inter-peritoneal (i.p.) lavage ([…]: 5% FCS, 50 μM β-mercaptoethanol, […] L-glutamine, penicillin and streptomycin, at 4° C.) and washed once (centrifuged at 800 Xg for 15 min) and resuspended at ˜2×10^7 cells/ml for peritoneal macrophages. Subsequently, peritoneal macrophages were layered on 5 ml of room temperature Lympholyte-M (CedarLane, Canada) and centrifuged at 1500×g for 20 min at room temperature. For splenic macrophages 3 ml of the minced and pressed tissue (˜2×10^7 splenocytes/ml) was layered on 5 ml of room temperature Lympholyte-M (CedarLane, Canada) and centrifuged at 1500×g for 20 min at room temperature. Subsequently, either peritoneal or spleen-derived macrophages were collected from the interface layer, washed twice with complete DMEM and re-suspend in 1 ml complete DMEM. The resulting cells were then counted by using typan blue exclusion and Diff Quik™ Stain Kit (IMEB INC, San Marcos, Calif.). Cells (10^5-10^6) were incubated with the following conjugated monoclonal antibodies: α-CD3ε-flourescein isohiocyanate (FITC), CD4-phycoerythin (PE), CD8α-Cy-Chrome, CD69-PE; B229-FITC, B220-PE, CD11b-Cy-Chrome, (Pharmigen) F4/80-FITC and F4/80PE (Cedarlane Laoratories, Hornby, ON, Canada). Flow cytometric analyses were performed on a Coulter XL cytometer (Coulter, Canada). Concentrations of TNF-α and IL-1β, in primary tissue culture supernatants were determined by ELISA kit (R&D Systems).

In assay [2] the test system is peritoneal-derived macrophages. The experiment in a line: Fas-induced death of peritoneal macrophages with or without LPS pre-treatment (TUNEL). The assay is classed as cell-based, mouse. The conditions noted are these: LPS 10 μg/ml, 4 h, α-Fas antibody 20 μg/ml. The procedure: Peritoneal-derived macrophages from cIAP2^−/− (lower panels) and cIAP2^+/+ mice (upper panels) were either pre-treated with LPS for 4 h or not pre-treated prior to exposure to α-Fas antibody and then TUNEL stained to assess cell viability (A). Percentages of viable cells (n=5, average of triplicate wells per mouse, P values were <0.01) are shown within each TUNEL stained panel along with the standard deviation. cIAP2^−/−-derived (open shapes) and cIAP2^+/+-derived (solid shapes) T cells were pre-incubated with a range of IL-7 concentrations and then exposed to dexamethasone and T cell survival was monitored over a 12 h period (B) (n=3, average of triplicate wells per mouse, results are mean±s.d., P values at the 12 h point were <0.05). Peritoneal-derived cell numbers are shown for macrophages of cIAP2^−/− mice and littermate control cIAP2^+/+ mice injected i.p. with LPS(C). […]
Confluent primary cultures of peritoneal-derived macrophages were either pre-treated with LPS (10 μg/ml, 4 h) or not pre-treated prior to exposure to α-Fas antibody (20 μg/ml, clone Jo2) and then TUNEL stained (Roche) to assess cell viability. Primary cultures of spleen derived T cells were pre-incubated with a range of IL-7 concentrations (0, 5, and 10 ng/ml) and then exposed to dexamethasone (100 nM) and T cell survival was monitored over a 12 h period.

[3] abbreviates: cIAP2+/+ mice, Peritoneal cavity, 0 hrs post-LPS.
[4] abbreviates: cIAP2+/+ mice, Peritoneal cavity, 5 hrs post-LPS.
The mark [5] stands for this setting: cIAP2+/+ mice, Spleen, 0 hrs post-LPS.
The mark [6] stands for this setting: cIAP2+/+ mice, Spleen, 0 hrs post-LPS (first Spleen line).
The mark [7] stands for this setting: cIAP2−/− mice, Peritoneal cavity, 0 hrs post-LPS.
The mark [8] stands for this setting: cIAP2−/− mice, Peritoneal cavity, 5 hrs post-LPS.
[9] abbreviates: cIAP2−/− mice, Spleen, 0 hrs post-LPS.
The mark [10] stands for this setting: cIAP2−/− mice, Spleen, 0 hrs post-LPS (first Spleen line).

For the substance lipopolysaccharide [LPS], the “Percent apoptotic” value in assay [1] (setting [3]) stood at 10 ± 2%; in assay [1] (setting [4]), 66 ± 8%; in assay [1] (setting [5]), 46 ± 8%; in assay [1] (setting [6]), 5 ± 3%; in assay [1] (setting [7]), 15 ± 3%; in assay [1] (setting [8]), 100 ± 3%. Further, the figures for the Percent apoptotic in assay [1] (setting [9]) and in assay [1] (setting [10]) were 98 ± 4% and 2 ± 5%, respectively. The Percent macrophage in assay [1] (setting [3]) came to 54 ± 29%; in assay [1] (setting [4]), 31 ± 17%; in assay [1] (setting [5]), 28 ± 5%; in assay [1] (setting [6]), 33 ± 15%; in assay [1] (setting [7]) it was 41 ± 24%; in assay [1] (setting [8]), 8 ± 11%. Further, the entries for the “Percent macrophage” value in assay [1] (setting [9]) and in assay [1] (setting [10]) were 24 ± 8% and 24 ± 11%, respectively. In addition, the “Macrophages positive for Annexin V (apoptotic)” value in assay [1] (cIAP2−/− mice, peritoneal and splenic macrophages, 5 hours post LPS injection) is given as around 100%. Besides, the “Resistance to Fas-mediated killing with or without pre-exposure to LPS” value in assay [2] (cIAP2−/− macrophages) was “displayed no difference”. Moreover, in assay [2] (wild-type macrophages), the “Resistance to Fas-induced death after LPS pre-treatment” value was “showed the expected resistance to Fas-induced death”.
